Results: patent US10154992B2, “Compounds and methods for treating HIV infection” (THE REGENTS OF THE UNIVERSITY OF CALIFORNIA, priority 2016, dated 2018)

System: not listed separately
Experiment: MTT cell viability run in parallel with the Tat-hybrid assay
Assay type: cell-based
Details: human, Tat-hybrid reporter cell lines (HeLa); Table 5; read-out: Tat hybrid TC50
Method: (§1) Cells were counted and plated into white 384-well or 96-well cell-culture treated assay plates and compounds were added. After 48 hours, the cells were prepared for luminescence assays that were performed on a plate reader (Tecan Evolution or MD Analyst). The cytotoxicity of each compound was determined in parallel via MTT-based cell viability assays.
as §1, with “Tat hybrid reporter assay. […] Previously characterized thienopyridines and diaminoacridine were used as controls. Cells” for “Cells”, “384-well” for “384-well or 96-well”, “lumincescence” for “luminescence”, “assays. […]” for “assays.”

SMILES	CC50 at 48 h
NC(=O)c1sc2cncc(N3CCCC(c4nc5ccccc5o4)C3)c2c1N (stereo not drawn)	< 40 µM
CN(C=O)c1ccc(C(=O)N2CCN(c3cncc4sc(C(N)=O)c(N)c34)CC2)cc1	< 40 µM
NC(=O)c1sc2cncc(-c3cccc4cccnc34)c2c1N	> 40 µM
COc1cc(C(=O)N2CCN(c3cncc4sc(C(N)=O)c(N)c34)CC2)ccc1C	< 40 µM
CN1CCN(c2cncc3sc(C(N)=O)c(N)c23)CC1	< 40 µM
CC(C)c1n[nH]c2c1CN(c1cncc3sc(C(N)=O)c(N)c13)CC2	< 40 µM
CS(=O)(=O)c1ccc(C(=O)N2CCN(c3cncc4sc(C(N)=O)c(N)c34)CC2)cc1	< 40 µM
COc1ccc(C(=O)N2CCN(c3cncc4sc(C(N)=O)c(N)c34)CC2)cc1F	< 40 µM
NC(=O)c1sc2cncc(-c3cncc4ccccc34)c2c1N	> 40 µM
Cc1ccc(C(=O)N2CCN(c3cncc4sc(C(N)=O)c(N)c34)CC2)cn1	< 40 µM
NC(=O)c1sc2cncc(-c3cccc(-c4ccccc4)c3)c2c1N	< 40 µM
NC(=O)c1sc2cncc(-c3ccncc3)c2c1N	> 40 µM
CC(=O)N1CCN(c2cncc3sc(C(N)=O)cc23)CC1	> 40 µM
NC(=O)c1sc2cncc(N3CCOCC3)c2c1N	< 40 µM
NC(=O)c1sc2cncc(Cl)c2c1N	< 40 µM
Cc1noc(C)c1C(=O)N1CCN(c2cncc3sc(C(N)=O)c(N)c23)CC1	< 40 µM
CN(Cc1cccs1)c1cncc2sc(C(N)=O)c(N)c12	< 40 µM
Cc1cccc(N2CCN(c3cncc4sc(C(N)=O)c(N)c34)CC2)n1	< 40 µM
Cn1cc(CC(=O)N2CCN(c3cncc4sc(C(N)=O)c(N)c34)CC2)c2ccccc21	< 40 µM
NC(=O)c1sc2cncc(N3CCN(c4ccccc4O)CC3)c2c1N	< 40 µM
NC(=O)c1cccc(-c2cncc3sc(C(N)=O)c(N)c23)c1	< 40 µM

Same assay, conditions: human, Tat-hybrid reporter cell lines (HeLa); Table 6; second 'EC50' entry of the cell, values D/E

SMILES	EC50 at 48 h
Cc1ccnc2sc(C(N)=O)c(N)c12	< 40 µM
CN(C)C(=O)c1sc2ncccc2c1N	< 40 µM
NC(=O)c1sc2ncccc2c1N	> 40 µM

System: Tat-hybrid reporter cell lines (HeLa)
Experiment: as above
Assay type: cell-based
Details: Table 6; at 50,000 nM
Method: as §1
as §1, with “Tat hybrid reporter assay. […] Previously characterized thienopyridines and diaminoacridine were used as controls. Cells” for “Cells”, “384-well” for “384-well or 96-well”, “lumincescence” for “luminescence”, “assays. […]” for “assays.”

SMILES	Tat hybrid cell viability at 50,000 nM
Cc1ccnc2sc(C(N)=O)c(N)c12	X (X = >60%)
COC(=O)c1sc2nc(C)c(C)c(C)c2c1N	Y (Y = 30-60%)
CN(C)c1ccnc2sc(C(=O)NCc3ccccc3)c(N)c12	Y (Y = 30-60%)
CCc1ccc2nc3sc(C(N)=O)c(N)c3cc2c1	X (X = >60%)
Cc1ccc2c(N)c(C(N)=O)sc2n1 [drawing 227]	X (X = >60%)
C=CCN(CC=C)C(=O)c1sc2nc(C)c(Cl)c(C)c2c1N	X (X = >60%)
Cc1cc2cc3c(N)c(C(N)=O)sc3nc2cc1C	X (X = >60%)
COc1ccc(-c2cc(-c3ccccc3)nc3sc(C(N)=O)c(N)c23)cc1 [drawing 268]	Y (Y = 30-60%)
COc1ccc(-c2c3c(nc4sc(C(N)=O)c(N)c24)CCCC3)cc1	X (X = >60%)
NC(=O)c1sc2nc(-c3ccc4c(c3)OCCO4)cc(C(F)(F)F)c2c1N	X (X = >60%)
COc1ccc(-c2c(C(=O)Nc3ccccc3)c(C)nc3sc(C(N)=O)c(N)c23)cc1	X (X = >60%)
N#Cc1c(N)nc2sc(C(N)=O)c(N)c2c1-c1ccc(Br)cc1	X (X = >60%)
COCc1cc(C)nc2sc(C(=O)Nc3cc(C)ccc3F)c(N)c12	X (X = >60%)
CC(=O)C1=C(C)Nc2sc(C(N)=O)c(N)c2C1c1cccnc1 (stereo not drawn)	X (X = >60%)
CN(C)C(=O)c1sc2ncccc2c1N	X (X = >60%)
NNC(=O)c1sc2ncccc2c1N	X (X = >60%)
N#Cc1cc2c(N)c(C(N)=O)sc2nc1N	Z (Z = <30%)
Cc1nc2sc(C(=O)c3ccc(Cl)cc3)c(N)c2c(C)c1C	X (X = >60%)
NC(=O)c1sc2ncccc2c1N	Y (Y = 30-60%)
CCOc1ccc2nc3sc(C(N)=O)c(N)c3cc2c1	X (X = >60%)
NC(=O)c1sc2nc3c(cc2c1N)CCCCC3	X (X = >60%)
NC(=O)c1sc2[nH]c(=O)c(C(=O)O)cc2c1N	X (X = >60%)
NC(=O)c1sc2nc(C3CC3)cc(-c3ccccc3)c2c1N	X (X = >60%)

SMILES	Tat hybrid cell viability at 50,000 nM
NC(=O)c1sc2nc3c(c(-c4cccnc4)c2c1N)CCC3	Z (Z = <30%)
NC(=O)c1sc2nc3c(cc2c1N)C(=O)CCC3	X (X = >60%)
COCc1cc(C)nc2sc(C(=O)Nc3ccc(NC(C)=O)cc3)c(N)c12	X (X = >60%)
CC(=O)C1=C(C)Nc2sc(C(N)=O)c(N)c2C1c1ccccc1 (stereo not drawn)	Y (Y = 30-60%)
NC(=O)c1sc2nc(C3CC3)cc(-c3ccc(Cl)cc3)c2c1N	Y (Y = 30-60%)
NC(=O)c1sc2nc(-c3ccccc3)cc(C(F)(F)F)c2c1N	X (X = >60%)
COc1ccc2cc3c(N)c(C(N)=O)sc3nc2c1	Y (Y = 30-60%)
Cc1cc(C)c2cc3c(N)c(C(N)=O)sc3nc2c1	Z (Z = <30%)
NC(=O)c1sc2nc(C(F)F)cc(-c3ccco3)c2c1N	Y (Y = 30-60%)
CCN(CC)C(=O)c1sc2nc(C)cc(C)c2c1N	Y (Y = 30-60%)
N#Cc1c(N)nc2sc(C(=O)Nc3ccc(Br)cc3)c(N)c2c1-c1cccs1	X (X = >60%)
COCc1cc(C)nc2sc(C(=O)c3ccc(Cl)cc3)c(N)c12	X (X = >60%)
Cc1nc2sc(C(=O)c3ccccc3)c(N)c2c(C)c1C	X (X = >60%)
COc1ccc(-c2cc(-c3ccc(Cl)cc3)c3c(N)c(C(N)=O)sc3n2)cc1	X (X = >60%)
NC(=O)c1sc2nc(-c3ccc(F)cc3)cc(-c3ccccc3)c2c1N	X (X = >60%)
COc1ccc(-c2c(C#N)c(N)nc3sc(C(N)=O)c(N)c23)cc1OC	Y (Y = 30-60%)
COc1ccc2nc3sc(C(N)=O)c(N)c3cc2c1	X (X = >60%)
NC(=O)c1sc2nc(C(F)F)cc(-c3ccccc3)c2c1N	X (X = >60%)
CCc1nc2sc(C(N)=O)c(N)c2cc1C	X (X = >60%)
Cc1cc(NC(=O)c2sc3nc(C)c(C)c(C)c3c2N)no1	X (X = >60%)
Cc1ccc2cc3c(N)c(C(N)=O)sc3nc2c1C	X (X = >60%)
Cc1ccc(-c2cc(-c3ccc(Cl)cc3)c3c(N)c(C(N)=O)sc3n2)cc1	Tat hybrid % inhibition at 5,000 nM: Z Tat hybrid cell viability at 50,000 nM: Z U1% inhibition at 10,000 nm: Z (Z = <30%)
COc1cc2cc3c(N)c(C(N)=O)sc3nc2cc1OC	X (X = >60%)

SMILES	Tat hybrid cell viability at 50,000 nM
COCc1cc(C)nc2sc(C(=O)N3CCOCC3)c(N)c12	Y (Y = 30-60%)
NC(=O)c1sc2nc3c(cc2c1N)CCCC3	X (X = >60%)
COc1ccc(C(=O)c2sc3nc(C)c(C)c(C)c3c2N)cc1OC	X (X = >60%)
Cc1cc(C)c2nc3sc(C(N)=O)c(N)c3cc2c1	X (X = >60%)
NC(=O)c1sc2nc3c(cc2c1N)CCC3	X (X = >60%)
Cc1ccc2nc3sc(C(N)=O)c(N)c3cc2c1	X (X = >60%)
COCc1cc(C)nc2sc(C(=O)Nc3ccc(C(C)=O)cc3)c(N)c12	X (X = >60%)
NC(=O)c1sc2nc(C34CC5CC(CC(C5)C3)C4)ccc2c1N	X (X = >60%)
NC(=O)c1sc2nc(-c3ccc(Cl)cc3)cc(-c3ccc(Cl)cc3)c2c1N	X (X = >60%)
CN1CCc2nc3sc(C(N)=O)c(N)c3cc2C1	X (X = >60%)
NC(=O)c1sc2nc(-c3ccccc3)cc(-c3ccccc3)c2c1N	Tat hybrid % inhibition at 5,000 nM: Z Tat hybrid cell viability at 50,000 nM: Z U1% inhibition at 10,000 nm: Z (Z = <30%)
NC(=O)c1sc2nc(-c3cccs3)cc(C(F)(F)F)c2c1N	Y (Y = 30-60%)
Cc1ccc(-c2cc(C(F)F)nc3sc(C(N)=O)c(N)c23)cc1	X (X = >60%)
N#Cc1c(N)nc2sc(C(=O)Nc3ccc(Cl)cc3)c(N)c2c1-c1cccs1	X (X = >60%)
N#Cc1c(N)nc2sc(C(=O)Nc3ccccc3)c(N)c2c1-c1cccs1	X (X = >60%)
COCc1cc(C)c2c(N)c(C(N)=O)sc2n1	Y (Y = 30-60%)
Cc1cc(C)c2c(N)c(C(=O)NCC(=O)O)sc2n1	X (X = >60%)
COc1ccc(NC(=O)c2sc3nc(N)c(C#N)c(-c4cccs4)c3c2N)cc1	X (X = >60%)
Cc1ccc2c(N)c(C(N)=O)sc2n1 [drawing 277]	X (X = >60%)
NC(=O)c1sc2nc(-c3ccccc3)ccc2c1N	X (X = >60%)
COCc1cc(C)nc2sc(C(=O)OC)c(N)c12	X (X = >60%)
COc1ccc(-c2cc(-c3ccccc3)nc3sc(C(N)=O)c(N)c23)cc1 [drawing 256]	X (X = >60%)
CCc1nnc(NC(=O)c2sc3nc(C)cc(COC)c3c2N)s1	X (X = >60%)
